Drawing on patent publication US12599672B2, “KRAS proteolysis targeting chimeras” (PAQ Therapeutics Inc., priority 2023, dated 2026), this text covers DC50 and Dmax for ten compounds.

Bounds are passed on as bounds.

What all share (assay type): cell-based
In one assay the target is T1, KRAS G12D (Homo sapiens, UniProt P01116, G12D).
T1 construct: AsPc-1-KRAS (G12D)-HiBit-KI cell (Pharmaron); host or cells: AsPc-1-KRAS (G12D)-HiBit-KI cells (HiBiT knock-in at the endogenous KRAS locus)
In words: KRAS G12D HiBit assay. The following applies: AsPc-1-KRAS (G12D)-HiBit-KI cell, compound treatment for 24 hours; for DC50: absolute DC50. An outline of the steps: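 Cells were treated for 24 h with compounds in a 3-fold, 10-point dilution series from a 0.3 mM DMSO stock, then equilibrated 15 min at room temperature. KRAS G12D HiBiT levels were read by luminescence after lytic Nano-Glo HiBiT reagent with LgBiT; inhibition calculated relative to 0.1% DMSO high control.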
In general terms: The HiBiT peptide binds its large partner to form an active luciferase.

Another assay concerns the target T2, KRAS G12V (Homo sapiens, UniProt P01116, G12V).
T2 construct: SW620-KRAS (G12V)-HiBit-KI cell (Pharmaron); host or cells: SW620-KRAS (G12V)-HiBit-KI cells (HiBiT knock-in at the endogenous KRAS locus)
The experiment in a line: KRAS G12V HiBit assay. The conditions noted are these: SW620-KRAS (G12V)-HiBit-KI cells, compound treatment for 24 hours. An outline of the steps: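 HiBiT-tagged KRAS G12V cells treated 24 h with compound in a 3-fold, 10-point series (0.3 mM DMSO stock); lytic HiBiT reagent with LgBiT added after 15 min room-temperature equilibration. Degradation calculated against 0.1% DMSO high control.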

Another assay deals with T3, KRAS (Homo sapiens, UniProt P01116).
T3 construct: endogenous in cells; host or cells: KE39 (KRAS amplified) cells
T3 sequence (P01116 1-188 isoform P01116-2): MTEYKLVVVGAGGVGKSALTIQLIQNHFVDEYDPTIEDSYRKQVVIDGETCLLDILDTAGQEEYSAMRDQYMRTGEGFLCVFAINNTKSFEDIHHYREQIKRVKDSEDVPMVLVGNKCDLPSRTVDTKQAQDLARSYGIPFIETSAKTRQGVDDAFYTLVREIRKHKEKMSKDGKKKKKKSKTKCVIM
In words: KRASamp MSD assay. The conditions noted are these: KE39 (KRAS amplified) cells, treated with test compounds for 24 hr, MSD readout of KRAS degradation. An outline of the steps:
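KRAS-amplified KE39 cells treated with compound for 24 hr, then lysed in RIPA buffer with protease/phosphatase inhibitors. KRAS protein measured by MSD sandwich immunoassay against a recombinant WT KRAS standard curve; DC50 derived from curve fitting of degradation.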

[1] abbreviates: numeric bounds given in place of class symbols.

T1 sequence (P01116 1-188 isoform P01116-2 G12D): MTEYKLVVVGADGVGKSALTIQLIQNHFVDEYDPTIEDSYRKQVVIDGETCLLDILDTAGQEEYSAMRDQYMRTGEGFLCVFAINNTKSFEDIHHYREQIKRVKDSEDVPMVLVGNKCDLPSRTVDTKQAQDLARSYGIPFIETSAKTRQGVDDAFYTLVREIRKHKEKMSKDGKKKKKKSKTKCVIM
T2 sequence (P01116 1-188 isoform P01116-2 G12V): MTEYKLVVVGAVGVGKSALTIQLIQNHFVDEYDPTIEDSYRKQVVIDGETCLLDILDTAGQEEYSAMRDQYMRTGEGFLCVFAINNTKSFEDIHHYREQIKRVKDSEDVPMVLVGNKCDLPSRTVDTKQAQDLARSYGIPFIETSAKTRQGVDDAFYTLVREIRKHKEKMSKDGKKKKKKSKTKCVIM

With `CCc1c(F)ccc2cc(O)cc(-c3ncc4c(N5CCC[C@@](C)(O)C5)nc(OC[C@@]56CCCN5[C@H](COC(=O)N5CCC(C#Cc7ccc8c(c7)n(C)c(=O)n8C7CCC(=O)NC7=O)CC5)CC6)nc4c3F)c12` (stereo partly drawn) [Compound 404, ((3S,7aS)-7a-(((7-(8-ethyl-7-fluoro-3-hydroxynaphthalen-1-yl)-8-fluoro-4-((R)-3-hydroxy-3-methylpiperidin-1-yl)pyrido[4,3-d]pyrimidin-2-yl)oxy)methyl)hexahydro-1H-pyrrolizin-3-yl)methyl 4-((1-(2,6-dioxopiperidin-3-yl)-3-methyl-2-oxo-2,3-dihydro-1H-benzo[d]imidazol-5-yl)ethynyl)piperidine-1-carboxylate], the DC50 is over 100 nM at KRAS G12D (setting [1]), under 10 nM at KRAS G12V (class symbols) and 1 to 10 nM at KRAS.

Turning to `CCc1c(F)ccc2cc(O)cc(-c3ncc4c(N5CCCC5)nc(OC[C@@]56CCCN5[C@H](COC(=O)N5CCC7(CC5)CC(N5CCC(c8ccc9c(c8)n(C)c(=O)n9C8CCC(=O)NC8=O)CC5)C7)CC6)nc4c3F)c12` (stereo partly drawn) [Compound 348, ((3S,7aS)-7a-(((7-(8-ethyl-7-fluoro-3-hydroxynaphthalen-1-yl)-8-fluoro-4-(pyrrolidin-1-yl)pyrido[4,3-d]pyrimidin-2-yl)oxy)methyl)hexahydro-1H-pyrrolizin-3-yl)methyl 2-(4-(1-(2,6-dioxopiperidin-3-yl)-3-methyl-2-oxo-2,3-dihydro-1H-benzo[d]imidazol-5-yl)piperidin-1-yl)-7-azaspiro[3.5]nonane-7-carboxylate], the DC50 at KRAS G12D (setting [1]) was over 100 nM; at KRAS G12V (class symbols) it was over 100 nM; at KRAS, at least 10 nM.

In the case of `CCc1c(F)ccc2cc(O)cc(-c3ncc4c(N5CCC[C@@](C)(O)C5)nc(OC[C@@]56CCCN5[C@H](COC(=O)N5CCC(N7CCC(Cc8ccc9c(c8)n(C)c(=O)n9C8CCC(=O)NC8=O)CC7)CC5)CC6)nc4c3F)c12` (stereo partly drawn) [Compound 430, ((3S,7aS)-7a-(((7-(8-ethyl-7-fluoro-3-hydroxynaphthalen-1-yl)-8-fluoro-4-((R)-3-hydroxy-3-methylpiperidin-1-yl)pyrido[4,3-d]pyrimidin-2-yl)oxy)methyl)hexahydro-1H-pyrrolizin-3-yl)methyl 4-((1-(2,6-dioxopiperidin-3-yl)-3-methyl-2-oxo-2,3-dihydro-1H-benzo[d]imidazol-5-yl)methyl)-[1,4′-bipiperidine]-1′-carboxylate], the DC50 at KRAS G12D (class symbols) is under 100 nM; on KRAS G12V (class symbols), 10 to 100 nM; on KRAS, 1 to 10 nM.

On to `CCc1c(F)ccc2cc(O)cc(-c3ncc4c(N5CCC[C@@](C)(O)C5)nc(OC[C@@]56CCCN5[C@H](COC(=O)N5CCC(CN7CCC(c8ccc9c(c8)n(C)c(=O)n9C8CCC(=O)NC8=O)C(F)(F)C7)CC5)CC6)nc4c3F)c12` (stereo partly drawn) [Compound 398, ((3S,7aS)-7a-(((7-(8-ethyl-7-fluoro-3-hydroxynaphthalen-1-yl)-8-fluoro-4-((R)-3-hydroxy-3-methylpiperidin-1-yl)pyrido[4,3-d]pyrimidin-2-yl)oxy)methyl)hexahydro-1H-pyrrolizin-3-yl)methyl 4-((4-(1-(2,6-dioxopiperidin-3-yl)-3-methyl-2-oxo-2,3-dihydro-1H-benzo[d]imidazol-5-yl)-3,3-difluoropiperidin-1-yl)methyl)piperidine-1-carboxylate], for which the DC50 on KRAS G12D (class symbols) is under 100 nM; at KRAS G12V (class symbols), under 10 nM; on KRAS, under 1 nM.

Turning to `CCc1c(F)ccc2cc(O)cc(-c3ncc4c(N5CCCCC5)nc(OC[C@@]56CCCN5[C@H](COC(=O)N5CCC7(CC5)CC(N5CCC(c8ccc9c(c8)n(C)c(=O)n9C8CCC(=O)NC8=O)CC5)C7)CC6)nc4c3F)c12` (stereo partly drawn) [Compound 367, ((3S,7aS)-7a-(((7-(8-ethyl-7-fluoro-3-hydroxynaphthalen-1-yl)-8-fluoro-4-(piperidin-1-yl)pyrido[4,3-d]pyrimidin-2-yl)oxy)methyl)hexahydro-1H-pyrrolizin-3-yl)methyl 2-(4-(1-(2,6-dioxopiperidin-3-yl)-3-methyl-2-oxo-2,3-dihydro-1H-benzo[d]imidazol-5-yl)piperidin-1-yl)-7-azaspiro[3.5]nonane-7-carboxylate], the DC50 is under 100 nM on KRAS G12D (class symbols), under 10 nM on KRAS G12V (class symbols) and under 1 nM at KRAS.

On to `C#Cc1c(F)ccc2cccc(-c3ncc4c(N5CCC[C@@](C)(O)C5)nc(OC[C@@]56CCCN5[C@H](COC(=O)N5CCC(CN7CCC(c8cccc9c8n(C)c(=O)n9C8CCC(=O)NC8=O)CC7)CC5)CC6)nc4c3F)c12` (stereo partly shown) [Compound 137], for which the results for the DC50 at KRAS G12D (class symbols), at KRAS G12V (numeric bounds) and on KRAS were 100 to 300 nM, over 75.7 nM and 1 to 10 nM, respectively.

For the compound `CCc1c(F)ccc2cc(O)cc(-c3ncc4c(N5CCC[C@@](C)(O)C5)nc(OC[C@@]56CCCN5[C@H](COC(=O)N5CCC(C)(CN7CCC(c8ccc9c(c8)n(C)c(=O)n9C8CCC(=O)NC8=O)CC7)CC5)CC6)nc4c3F)c12` (stereo partly drawn) [Compound 157, ((3S,7aS)-7a-(((7-(8-Ethyl-7-fluoro-3-hydroxynaphthalen-1-yl)-8-fluoro-4-((R)-3-hydroxy-3-methylpiperidin-1-yl)pyrido[4,3-d]pyrimidin-2-yl)oxy)methyl)hexahydro-1H-pyrrolizin-3-yl)methyl 4-((4-(1-(2,6-dioxopiperidin-3-yl)-3-methyl-2-oxo-2,3-dihydro-1H-benzo[d]imidazol-5-yl)piperidin-1-yl)methyl)-4-methylpiperidine-1-carboxylate], the results for the DC50 on KRAS G12D (setting [1]), on KRAS G12V (class symbols) and on KRAS were over 100 nM, under 10 nM and under 1 nM, respectively.

On to `CCc1c(F)ccc2cc(O)cc(-c3ncc4c(N5CCC[C@@](C)(O)C5)nc(OC[C@]56CCCN5[C@H](COC(=O)N5CCC(CN7CCC(c8ccc9c(c8)n(C)c(=O)n9C8CCC(=O)NC8=O)CC7)CC5)CC6)nc4c3F)c12` (stereo partly drawn) [Compound 390, ((3S,7aR)-7a-(((7-(8-ethyl-7-fluoro-3-hydroxynaphthalen-1-yl)-8-fluoro-4-((R)-3-hydroxy-3-methylpiperidin-1-yl)pyrido[4,3-d]pyrimidin-2-yl)oxy)methyl)hexahydro-1H-pyrrolizin-3-yl)methyl 4-((4-(1-(2,6-dioxopiperidin-3-yl)-3-methyl-2-oxo-2,3-dihydro-1H-benzo[d]imidazol-5-yl)piperidin-1-yl)methyl)piperidine-1-carboxylate], for which the DC50 was under 100 nM at KRAS G12D (class symbols), under 10 nM on KRAS G12V (class symbols) and 1 to 10 nM at KRAS.

For `CCc1c(F)ccc2cc(O)cc(-c3ncc4c(N5CCC[C@@](C)(O)C5)nc(OC[C@@]56CCCN5[C@H](COC(=O)N5CCC(CN7CCC(c8ccc9c(C%10CCC(=O)NC%10=O)nn(C)c9c8F)CC7)CC5)CC6)nc4c3F)c12` (stereo partly drawn) [Compound 100, [(3S,8S)-8-[[7-(8-ethyl-7-fluoro-3-hydroxy-1-naphthyl)-8-fluoro-4-[(3R)-3-hydroxy-3-methyl-1-piperidyl]pyrido[4,3-d]pyrimidin-2-yl]oxymethyl]-1,2,3,5,6,7-hexahydropyrrolizin-3-yl]methyl 4-[[4-[3-(2,6-dioxo-3-piperidyl)-7-fluoro-1-methyl-indazol-6-yl]-1-piperidyl]methyl]piperidine-1-carboxylate], the values for the DC50 on KRAS G12D (class symbols), on KRAS G12V (class symbols) and at KRAS were under 100 nM, under 10 nM and under 1 nM, respectively. This compound registered a Dmax at KRAS G12D (class symbols) of over 50%.

With `C#Cc1c(F)ccc2cc(O)cc(-c3ncc4c(N5CCC[C@@](C)(O)C5)nc(OCC5(CN6CCC7(CC6)CCN(c6ccc8c(c6)n(C)c(=O)n8C6CCC(=O)NC6=O)CC7)CC5)nc4c3F)c12` (stereo partly shown) [Compound 52], the DC50 is under 100 nM at KRAS G12D (class symbols), under 10 nM at KRAS G12V (class symbols) and at least 10 nM at KRAS.
